The NIST ThermoML archive (doi:10.1021/je060420p)
± gives the expanded uncertainty stated by the source.

Columns and labels:
[1] = excess molar enthalpy (molar enthalpy of mixing); xn = mol fraction of the nth substance listed; conditions: 101 kPa, Liquid, Calvet calorimetry
[2] = refractive index (Na D-line) (dimensionless); conditions: 101.33 kPa, Liquid, Standard Abbe refractometry
[3] = 101.33 kPa, Liquid

For `CC1=CCC2CC1C2(C)C` (centres undefined) [2-pinene] + C=C1CCC2CC1C2(C)C, the excess molar enthalpy ([1]; 298.15 K, x1 = 0.2012) was 0.00167 ± 0.000191 kcal/mol, the excess molar enthalpy ([1]; 298.15 K, x1 = 0.3013) was 0.0022 ± 0.000191 kcal/mol and the excess molar enthalpy ([1]; 298.15 K, x1 = 0.3987) was 0.00253 ± 0.000215 kcal/mol. It also gave an excess molar enthalpy ([1]; 298.15 K, x1 = 0.4993) of 0.00265 ± 0.000215 kcal/mol, an excess molar enthalpy ([1]; 298.15 K, x1 = 0.5994) of 0.00246 ± 0.000215 kcal/mol and an excess molar enthalpy ([1]; 298.15 K, x1 = 0.7023) of 0.00227 ± 0.000215 kcal/mol. For the same molecule, the excess molar enthalpy ([1]; 298.15 K, x1 = 0.7998) was 0.00174 ± 0.000191 kcal/mol, the excess molar enthalpy ([1]; 308.15 K, x1 = 0.2) was 0.00179 ± 0.000191 kcal/mol and the excess molar enthalpy ([1]; 308.15 K, x1 = 0.3004) was 0.00241 ± 0.000215 kcal/mol. For the same molecule, the excess molar enthalpy ([1]; 308.15 K, x1 = 0.3999) was 0.00272 ± 0.000215 kcal/mol, the excess molar enthalpy ([1]; 308.15 K, x1 = 0.5006) was 0.00284 ± 0.000215 kcal/mol and the excess molar enthalpy ([1]; 308.15 K, x1 = 0.6013) was 0.00261 ± 0.000215 kcal/mol. The excess molar enthalpy ([1]; 308.15 K, x1 = 0.6972) was 0.00237 ± 0.000215 kcal/mol, the excess molar enthalpy ([1]; 308.15 K, x1 = 0.7998) was 0.00177 ± 0.000191 kcal/mol and the excess molar enthalpy ([1]; 318.15 K, x1 = 0.2003) was 0.0021 ± 0.000191 kcal/mol. It also gave an excess molar enthalpy ([1]; 318.15 K, x1 = 0.3001) of 0.00268 ± 0.000215 kcal/mol, an excess molar enthalpy ([1]; 318.15 K, x1 = 0.4034) of 0.00304 ± 0.000215 kcal/mol and an excess molar enthalpy ([1]; 318.15 K, x1 = 0.5) of 0.00315 ± 0.000215 kcal/mol. The excess molar enthalpy ([1]; 318.15 K, x1 = 0.6004) was 0.00301 ± 0.000215 kcal/mol, the excess molar enthalpy ([1]; 318.15 K, x1 = 0.7012) was 0.00272 ± 0.000215 kcal/mol and the excess molar enthalpy ([1]; 318.15 K, x1 = 0.7975) was 0.00201 ± 0.000191 kcal/mol.
With `CC1=CCC2CC1C2(C)C` (centres undefined) [2-pinene] the refractive index ([2]; 298.15 K) was 1.4626 ± 0.0006, the refractive index ([2]; 308.15 K) was 1.4581 ± 0.0006 and the refractive index ([2]; 318.15 K) was 1.4542 ± 0.0006. The mass density ([3]; 298.15 K) was 854.03 ± 0.93 kg/m3, the mass density ([3]; 308.15 K) was 845.79 ± 0.97 kg/m3 and the mass density ([3]; 318.15 K) was 838.64 ± 1 kg/m3.
For `C=C1CCC2CC1C2(C)C` (stereo not drawn) [β-pinene], the refractive index ([2]; 298.15 K) was 1.476 ± 0.0006, the refractive index ([2]; 308.15 K) was 1.4714 ± 0.0006 and the refractive index ([2]; 318.15 K) was 1.4665 ± 0.0006. The mass density ([3]; 298.15 K) was 867.06 ± 0.9 kg/m3, the mass density ([3]; 308.15 K) was 859.08 ± 0.93 kg/m3 and the mass density ([3]; 318.15 K) was 852.08 ± 0.96 kg/m3.
`Cc1ccc(C(C)C)cc1` [1-(1-methylethyl)-4-methylbenzene] gave a refractive index ([2]; 298.15 K) of 1.4878 ± 0.0006, a refractive index ([2]; 308.15 K) of 1.4831 ± 0.0006 and a refractive index ([2]; 318.15 K) of 1.4789 ± 0.0006. For the same molecule, the mass density ([3]; 298.15 K) was 853.47 ± 1.1 kg/m3, the mass density ([3]; 308.15 K) was 845.59 ± 1.1 kg/m3 and the mass density ([3]; 318.15 K) was 838.46 ± 1.1 kg/m3.
